# Data from patent US10611777B2, “Imidazopyridazine compounds and their use” (HUTCHISON MEDIPHARMA LIMITED, priority 2014, dated 2020).
# Experiments:
# [1] = test system: anti-IgD induced B cell activation; test: Anti-IgD antibody induced B cells activation in rat whole blood (ex vivo after oral dosing)
# Experimental: Activation of B cells (B220+) in rat whole blood with anti-IgD antibody leading to activation via Ig receptors is known to involve PI3K pathways and sensitive to modulation by PI3Kδ inhibitors. A pharmacodynamics assay was developed to assess activity of PI3Kδ inhibitors ex vivo following oral administration of inhibitors to rats.
# Wistar rats (female, 6-8 weeks old) were used in the experiments. The dose dependency, time course study and PKPD relationship of compound 4 were conducted in normal Wistar rats. […] The control group (6 rats) was treated with the vehicle alone. […] The heparin anti-coagulated blood was mixed with anti-rat-IgD, then was incubated at 37° C. under 5% CO2 overnight. Fluorescence signal for CD86 on B220 (B cells) positive cells was detected using a flow cytometer (BD FACSCalibur, BD Biosciences) and data were analyzed by CellQuest software. Plasma was collected to measure compound 4 levels.
# [2] = test system: Wistar rats with established type II collagen-induced arthritis; test: Rat collagen II induced arthritis (CIA) model; assay type: in vivo
# Experimental: Rat collagen induced arthritis is an experimental model of polyarthritis that has been widely used for nonclinical testing of numerous anti-arthritic agents that are either under nonclinical or clinical investigation or are currently used as therapeutics in this disease.
# Wistar rats were immunized intradermally with 200 μg bovine collagen II emulsified in Freund's incomplete adjuvant (IFA, Sigma, US) on day 0 and day 7. The hind paw volumes were measured before and after the immunization. […] The naive group was not administered. YiSaiPu (10 mg/kg), a human tumor necrosis factor receptor p75 Fc fusion protein, was administered with intraperitoneal injection on days 10, 12 and 14 as a positive control. The study was terminated on day 18.
# [3] = molecular target: PI3K-α (p110α/p85α) (Homo sapiens (Human), UniProt P42336); test: Fluorescent determination of PI3K enzyme activity (Transcreener KINASE Assay), PI3K-α; assay type: biochemical; settings: inhibition rate at 1 μM
# PI3K-α (p110α/p85α), sequence (P42336 whole entry, species assumed): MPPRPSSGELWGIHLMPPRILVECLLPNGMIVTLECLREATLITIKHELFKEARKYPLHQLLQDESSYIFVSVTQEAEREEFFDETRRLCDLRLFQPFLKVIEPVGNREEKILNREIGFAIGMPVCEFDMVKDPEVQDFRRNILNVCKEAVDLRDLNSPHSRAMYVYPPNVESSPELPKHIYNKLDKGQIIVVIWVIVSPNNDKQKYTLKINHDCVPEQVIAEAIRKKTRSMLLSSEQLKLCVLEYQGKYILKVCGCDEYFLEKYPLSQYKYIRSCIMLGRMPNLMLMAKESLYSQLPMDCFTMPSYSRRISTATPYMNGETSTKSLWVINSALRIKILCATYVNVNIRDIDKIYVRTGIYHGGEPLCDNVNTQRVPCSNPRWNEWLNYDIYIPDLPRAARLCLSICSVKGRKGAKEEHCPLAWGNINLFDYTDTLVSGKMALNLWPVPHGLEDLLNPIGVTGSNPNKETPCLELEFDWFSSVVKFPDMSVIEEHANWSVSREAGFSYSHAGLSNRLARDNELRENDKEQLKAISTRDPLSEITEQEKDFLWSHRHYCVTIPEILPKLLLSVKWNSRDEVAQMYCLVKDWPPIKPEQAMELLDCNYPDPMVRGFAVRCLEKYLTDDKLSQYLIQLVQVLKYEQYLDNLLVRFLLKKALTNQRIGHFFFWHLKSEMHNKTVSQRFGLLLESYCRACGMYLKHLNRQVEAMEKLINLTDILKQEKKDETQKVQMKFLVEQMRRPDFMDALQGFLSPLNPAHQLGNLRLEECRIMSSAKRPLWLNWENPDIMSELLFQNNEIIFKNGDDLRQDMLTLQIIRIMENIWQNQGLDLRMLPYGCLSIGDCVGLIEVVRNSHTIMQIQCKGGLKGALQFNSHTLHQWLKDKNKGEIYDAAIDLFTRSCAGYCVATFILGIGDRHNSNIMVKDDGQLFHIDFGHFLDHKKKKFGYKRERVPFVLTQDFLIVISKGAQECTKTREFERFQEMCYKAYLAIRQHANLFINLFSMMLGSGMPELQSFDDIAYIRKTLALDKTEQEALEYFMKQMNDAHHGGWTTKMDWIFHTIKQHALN
# PI3K-α (p110α/p85α), sequence (P27986 whole entry partner, species assumed): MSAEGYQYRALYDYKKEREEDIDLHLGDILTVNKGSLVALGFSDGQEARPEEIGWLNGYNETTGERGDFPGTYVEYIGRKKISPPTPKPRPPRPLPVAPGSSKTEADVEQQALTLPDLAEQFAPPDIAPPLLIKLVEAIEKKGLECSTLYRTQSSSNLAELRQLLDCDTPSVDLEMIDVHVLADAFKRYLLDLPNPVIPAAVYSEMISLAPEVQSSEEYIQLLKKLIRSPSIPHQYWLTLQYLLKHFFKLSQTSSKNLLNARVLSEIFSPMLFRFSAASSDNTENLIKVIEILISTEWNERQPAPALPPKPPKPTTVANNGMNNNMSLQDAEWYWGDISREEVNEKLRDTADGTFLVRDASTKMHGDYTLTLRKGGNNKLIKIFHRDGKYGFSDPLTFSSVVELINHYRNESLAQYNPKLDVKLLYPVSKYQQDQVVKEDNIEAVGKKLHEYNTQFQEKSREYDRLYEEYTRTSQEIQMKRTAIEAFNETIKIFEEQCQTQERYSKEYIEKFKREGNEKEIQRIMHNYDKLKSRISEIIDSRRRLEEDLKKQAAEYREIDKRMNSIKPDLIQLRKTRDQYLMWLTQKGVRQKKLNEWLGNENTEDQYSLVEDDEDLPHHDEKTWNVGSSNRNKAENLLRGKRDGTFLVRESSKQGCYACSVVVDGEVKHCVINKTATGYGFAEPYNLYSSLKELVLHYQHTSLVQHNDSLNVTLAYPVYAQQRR
# Experimental: Inhibition rates were calculated as follow: IH %=(ADP amount under 2% DMSO well−ADP amount under test compound well)/ADP amount under 2% DMSO well×100%.
# [4] = molecular target: PI3K-β (p110β/p85α) (Homo sapiens (Human), UniProt P42338); test: Fluorescent determination of PI3K enzyme activity (Transcreener KINASE Assay), PI3K-β; assay type: biochemical; settings: inhibition rate at 1 μM;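 note: Far-red fluorescence polarization immunoassay detecting ADP produced by the kinase, 80 min enzyme reaction at room temperature, inhibition relative to ADP formed in 2% DMSO control wells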
# PI3K-β (p110β/p85α), sequence (P42338 whole entry, species assumed): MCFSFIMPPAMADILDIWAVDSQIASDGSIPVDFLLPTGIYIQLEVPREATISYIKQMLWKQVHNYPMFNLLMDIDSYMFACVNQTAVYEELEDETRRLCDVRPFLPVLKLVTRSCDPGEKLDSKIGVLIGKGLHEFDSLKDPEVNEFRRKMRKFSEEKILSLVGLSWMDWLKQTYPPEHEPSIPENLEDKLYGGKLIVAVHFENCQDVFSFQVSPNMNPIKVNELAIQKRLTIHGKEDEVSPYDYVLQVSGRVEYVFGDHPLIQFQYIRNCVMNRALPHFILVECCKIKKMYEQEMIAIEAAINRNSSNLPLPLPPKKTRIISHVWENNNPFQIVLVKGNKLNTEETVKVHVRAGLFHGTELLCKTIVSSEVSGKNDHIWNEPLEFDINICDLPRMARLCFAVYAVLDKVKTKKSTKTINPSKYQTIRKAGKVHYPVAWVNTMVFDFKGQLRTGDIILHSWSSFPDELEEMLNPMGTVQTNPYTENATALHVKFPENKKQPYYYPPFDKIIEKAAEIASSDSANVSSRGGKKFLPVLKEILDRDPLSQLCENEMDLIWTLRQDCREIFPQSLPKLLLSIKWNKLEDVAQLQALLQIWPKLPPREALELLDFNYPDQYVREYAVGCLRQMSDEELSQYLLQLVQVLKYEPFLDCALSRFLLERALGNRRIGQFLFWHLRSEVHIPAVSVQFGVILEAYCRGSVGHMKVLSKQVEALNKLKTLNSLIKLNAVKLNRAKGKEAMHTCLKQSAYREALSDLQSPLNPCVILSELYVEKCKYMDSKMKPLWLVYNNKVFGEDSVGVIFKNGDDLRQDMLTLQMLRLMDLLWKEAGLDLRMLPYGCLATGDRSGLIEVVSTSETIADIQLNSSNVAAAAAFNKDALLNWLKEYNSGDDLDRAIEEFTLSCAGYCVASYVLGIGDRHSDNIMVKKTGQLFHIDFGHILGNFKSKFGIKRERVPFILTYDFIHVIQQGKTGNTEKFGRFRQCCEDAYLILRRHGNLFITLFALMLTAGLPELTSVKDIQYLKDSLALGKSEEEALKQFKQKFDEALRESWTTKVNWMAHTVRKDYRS
# PI3K-β (p110β/p85α), sequence (P27986 whole entry partner, species assumed): as the sequence (P27986 whole entry partner, species assumed) above
# Experimental: (§1) PI3K kinases including p110α/p85α and p110γ were purchased from Invitrogen, p110δ/p85α and p110β/p85α were from Millipore.
# (§2) It is a universal, homogenous, high throughput screening (HTS) technology using a far-red, competitive fluorescence polarization immunoassay based on the defection of ADP to monitor the activity of enzymes that catalyze group transfer reactions. […] The reaction mixture was added into desired wells of a 96-well plate. The plate was sealed and incubated for 80 min at room temperature. • 2) Next, 25 uL ADP detection mix was added into each well. The plate was sealed again and incubated for 60 min at room temperature. Then fluorescence polarization was measured by Tecan Infinite F500 Reader.
# (§3) Data was analyzed and IC50 values were generated using the add-in software for Microsoft Excel, Xlfit™ (version 5.3).
# [5] = test system: AKT phosphorylation (p-AKT Ser473) in Ramos cells; test: Inhibition of AKT phosphorylation in Ramos cell line; assay type: cell-based; settings: anti-IgM stimulated
# Experimental: 6×10^4/mL Ramos cells (ATCC, CRL-1596; cells were cultured in RPMI1640 media with 10% FBS) were seeded into a 96-well plate (Bookman Dickinson, No. 356692) at 80 uL/well, 4,800 cells/well. After incubations for 3 hr at 37° C. under 5% CO2, Ramos cells were treated with 10 uL/well various concentrations of test compound (final concentrations of the test compound: 1 uM, 0.3 uM, 0.1 uM, 0.037 uM, 0.012 uM, 0.0041 uM, 0.0014 uM and 0.0005 uM) or 0.3% DMSO for 30 min, and then were stimulated with 10 uL/well 1 ug/ml Anti-IgM (Jackson Immunoresearch, 709-006-073) for 15-20 min. • 1) Cells were fixed with 100 μL of 4% pre-warmed Paraformaldehyde (2% final concentration), and incubated for 45 min at room temperature. • 2) The paraformaldehyde solution was removed. 100 μL of ice-cold methanol was added into each well and the plate was left at 4° C. for 30 min. • 3) The cells were washed for three times with 160 μPBS. • 4) 40 μL 1:350 dilution of Rabbit anti-p-AKT(Ser^473) antibody (Cell Signaling Technology, 4060 L) in antibody dilution buffer (1% BSA, in PBS) were added into each well. […]
# as §3
# [6] = test system: SU-DHL-6 cell line; test: In vitro cell proliferation assay in SU-DHL-6 cell line; assay type: cell-based; settings: SU-DHL-6, 72 h, CCK-8
# Experimental: Growth inhibition assays were carried out using 10% FBS supplemented media. Cells were seeded at a concentration of 15000 cells/well in a 96-well plate. Test compound dilution at different concentrations (final concentrations of the test compound: 1 uM, 0.3 uM, 0.1 uM, 0.037 uM, 0.012 uM, 0.0041 uM, 0.0014 uM and 0.0005 uM) were added after 24 hours. Growth was assessed using Cell Counting Kit-8 (CCK-8) (Dojindo, Cat # CK04) after the test compound were incubated for 72 h. Absorbance was read at the wave length 450 nm on Multiskan MK3 machine (Thermo).
# as §3
# [7] = molecular target: PI3K-δ (p110δ/p85α) (Homo sapiens (Human), UniProt O00329); test: Fluorescent determination of PI3K enzyme activity (Transcreener KINASE Assay), PI3K-δ; assay type: biochemical; settings: for PI3K-δ IH%: inhibition rate at 1 μM
# PI3K-δ (p110δ/p85α), sequence (O00329 whole entry, species assumed): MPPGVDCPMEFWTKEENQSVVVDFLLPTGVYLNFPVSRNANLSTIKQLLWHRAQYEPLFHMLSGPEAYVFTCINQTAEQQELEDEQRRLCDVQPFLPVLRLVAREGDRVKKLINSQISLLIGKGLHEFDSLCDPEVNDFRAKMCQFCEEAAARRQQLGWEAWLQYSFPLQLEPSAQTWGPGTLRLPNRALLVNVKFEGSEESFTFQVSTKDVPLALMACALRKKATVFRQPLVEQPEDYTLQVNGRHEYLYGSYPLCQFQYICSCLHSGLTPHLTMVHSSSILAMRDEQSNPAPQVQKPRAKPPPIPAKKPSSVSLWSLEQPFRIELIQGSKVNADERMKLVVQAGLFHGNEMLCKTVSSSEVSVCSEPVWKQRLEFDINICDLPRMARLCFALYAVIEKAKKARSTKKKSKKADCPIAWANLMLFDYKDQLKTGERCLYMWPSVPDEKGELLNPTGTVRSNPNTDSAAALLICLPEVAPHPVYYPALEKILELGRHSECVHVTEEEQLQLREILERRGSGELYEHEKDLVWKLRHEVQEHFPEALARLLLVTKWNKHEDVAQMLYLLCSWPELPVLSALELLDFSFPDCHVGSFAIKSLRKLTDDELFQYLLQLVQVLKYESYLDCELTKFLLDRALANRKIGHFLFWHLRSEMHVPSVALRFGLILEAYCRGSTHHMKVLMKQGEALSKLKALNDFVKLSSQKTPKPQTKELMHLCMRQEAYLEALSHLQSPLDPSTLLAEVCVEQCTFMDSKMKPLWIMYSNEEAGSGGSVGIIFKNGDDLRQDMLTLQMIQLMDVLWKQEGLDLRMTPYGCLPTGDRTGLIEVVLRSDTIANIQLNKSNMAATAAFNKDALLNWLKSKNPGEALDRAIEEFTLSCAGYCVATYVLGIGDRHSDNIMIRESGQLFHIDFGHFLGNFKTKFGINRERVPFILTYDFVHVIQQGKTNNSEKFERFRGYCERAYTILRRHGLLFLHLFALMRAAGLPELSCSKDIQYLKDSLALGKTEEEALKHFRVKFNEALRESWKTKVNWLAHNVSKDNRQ
# PI3K-δ (p110δ/p85α), sequence (P27986 whole entry partner, species assumed): as the sequence (P27986 whole entry partner, species assumed) above
# Experimental: as §1, §2, §3
# [8] = molecular target: PI3K-γ (p110γ) (Homo sapiens (Human), UniProt P48736); test: Fluorescent determination of PI3K enzyme activity (Transcreener KINASE Assay), PI3K-γ; assay type: biochemical; settings: for PI3K-γ IH%: inhibition rate at 1 μM;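 for all read-outs here: p110γ enzyme reaction for 80 min at room temperature, ADP formed measured by far-red competitive fluorescence polarization immunoassay, inhibition relative to wells with 2% DMSO only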
# PI3K-γ (p110γ), sequence (P48736 whole entry, species assumed): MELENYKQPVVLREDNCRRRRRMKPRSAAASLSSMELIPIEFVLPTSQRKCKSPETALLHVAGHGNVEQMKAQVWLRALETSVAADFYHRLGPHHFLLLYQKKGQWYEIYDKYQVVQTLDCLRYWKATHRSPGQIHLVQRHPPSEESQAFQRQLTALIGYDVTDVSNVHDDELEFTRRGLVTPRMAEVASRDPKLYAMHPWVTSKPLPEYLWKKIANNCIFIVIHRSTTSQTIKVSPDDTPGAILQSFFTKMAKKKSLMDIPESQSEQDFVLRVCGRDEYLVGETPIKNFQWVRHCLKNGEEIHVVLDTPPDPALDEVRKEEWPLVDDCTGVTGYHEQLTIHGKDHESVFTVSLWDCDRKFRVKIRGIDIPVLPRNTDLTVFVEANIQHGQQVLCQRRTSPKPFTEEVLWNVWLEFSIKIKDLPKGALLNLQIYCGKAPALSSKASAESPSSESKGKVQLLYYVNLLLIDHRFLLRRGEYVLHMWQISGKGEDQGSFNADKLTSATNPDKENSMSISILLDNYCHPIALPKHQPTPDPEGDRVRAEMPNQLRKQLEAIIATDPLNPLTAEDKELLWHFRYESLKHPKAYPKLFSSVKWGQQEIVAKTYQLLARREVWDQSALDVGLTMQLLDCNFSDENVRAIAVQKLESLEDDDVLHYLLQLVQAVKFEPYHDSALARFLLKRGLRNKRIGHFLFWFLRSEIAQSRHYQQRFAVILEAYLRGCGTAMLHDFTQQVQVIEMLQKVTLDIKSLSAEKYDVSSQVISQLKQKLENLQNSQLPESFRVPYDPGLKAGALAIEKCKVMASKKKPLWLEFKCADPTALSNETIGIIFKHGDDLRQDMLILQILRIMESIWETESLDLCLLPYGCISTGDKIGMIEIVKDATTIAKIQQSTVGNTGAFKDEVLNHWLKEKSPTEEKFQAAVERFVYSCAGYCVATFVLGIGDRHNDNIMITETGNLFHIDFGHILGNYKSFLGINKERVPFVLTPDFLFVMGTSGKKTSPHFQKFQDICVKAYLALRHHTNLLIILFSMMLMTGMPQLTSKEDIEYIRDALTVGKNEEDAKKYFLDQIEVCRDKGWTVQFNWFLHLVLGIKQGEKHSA
# Experimental: as §1, §2, §3
# [9] = test system: PI3Kδ signaling in basophils from human whole blood; test: Inhibition of PI3Kδ signaling in basophils from human whole blood; assay type: cell-based; settings: anti-IgE stimulated, CD63
# Experimental: • 1) Heparinized human whole blood was mixed and pipetted into the 96 well v-bottom plate, 100 μL per well. • 2) 10 μL of stimulation buffer (1 mg/mL stock, final concentration of Recombinant human IL-3; 20 ng/mL) was added to the whole blood samples of each well and vortex gently. The samples were incubated for 20 min at 37° C. • 3) 10 uL/well of test compound dilution (final concentrations of the test compound in well: 1 uM, 0.3 uM, 0.1 uM, 0.037 uM, 0.012 uM, 0.0041 uM, 0.0014 uM and 0.0005 uM) or vehicle (0.2% DMSO) was added into each well of the plate and the plate was incubated for 1.5 h at 37° C. • 4) 100 μL of the Goat anti-human IgE (1 mg/mL stock, final concentration of IgE: 0.31 ug/mL) working solution was added into each well of the plate. Vortex all the wells once more and incubate for 20 min at 37° C. • 5) Labeling with staining antibody: Degranulation was stopped by incubating the samples on ice for 5 min. 6 μL of staining antibody mixture (anti-CD63-FITC and anti-IgE-PE) was added into each well. […] The plate was incubated in a covered ice bath until analysis. • 10) Flow cytometric analysis: Cells were analyzed by flow cytometry using the blue-green excitation light (488 nm argon-ion laser, FACSCalibur, CELLQuest software).
# as §3
SMILES,PI3K-β IH% [4] [%],PI3K-δ IH% [7] [%],PI3K-γ IH% [8] [%],other results
"C[C@H](Nc1ncnc(N)c1C#N)c1cc2ncc(Cl)n2nc1-c1ccccc1 [Compound 4, (S)-4-amino-6-((1-(3-chloro-6-phenylimidazo[1,2-b]pyridazin-7-yl)ethyl)amino)pyrimidine-5-carbonitrile]",,,,"EC50 ([1]; Rattus norvegicus, B-cell, po, at 2 hr post-dose, read-out: EC50 (corresponding plasma concentration)): 1.49 ng/mL; anti-IgD induced B cell activation in rat whole blood, ex vivo ([1]; oral, dose range 0.01 to 3 mg/kg, p<0.01): inhibited anti-IgD induced B cell activation in rat whole blood, ex vivo, in a dose- and time-dependent manner; mean paw volume at the end of the treatment period compared to vehicle-treated diseased animals ([2]; PO QD days 10-16, p<0.01, all doses except lowest dose 0.03 mg/kg): significantly decreased; effects on the parameters associated with established type II collagen-induced arthritis ([2]; daily oral treatment): dose-dependent beneficial effects"
C[C@H](Nc1ncnc(N)c1-c1nn[nH]n1)c1cc2ncc(Cl)n2nc1-c1ccccc1 [Compound 21],,,,PI3K-α IH% [3]: 21.7%
Cc1cnc2cc([C@H](C)Nc3ncnc(N)c3C#N)c(-c3ccccc3)nn12 [Compound 22],76.7,,,PI3K-α IH% [3]: 13.6%
Cc1cnc2cc([C@H](C)Nc3ncnc4[nH]cnc34)c(-c3ccccc3)nn12 [Compound 23],28.7,,,PI3K-α IH% [3]: 3.2%; IC50 [5]: 12 nM; IC50 [6]: 78 nM
CCC(Nc1ncnc(N)c1C#N)c1cc2ncc(Cl)n2nc1-c1ccccn1 (stereo not drawn) [Compound 28],11.1,39.8,18.8,
C[C@H](Nc1nc(N)ncc1C#N)c1cc2ncc(Cl)n2nc1-c1ccccc1 [Compound 34],3.7,8.3,−19.3,
COc1cc(-c2c(N)ncnc2N[C@@H](C)c2cc3ncc(Cl)n3nc2-c2ccccc2)ccn1 [Compound 50],−14.1,68.9,5.5,
"C[C@H](Nc1nc(O)nc(N)c1C#N)c1cc2ncc(Cl)n2nc1-c1ccccc1 [Compound 55, (S)-4-amino-6-((1-(3-chloro-6-phenylimidazo[1,2-b]pyridazin-7-yl)ethyl)amino)-2-hydroxypyrimidine-5-carbonitrile]",8.5,60.3,−4.7,
C[C@H](Nc1ncnc(N)c1C(=O)N(C)C)c1cc2ncc(Cl)n2nc1-c1ccccc1 [Compound 56],9.0,21.0,1.0,
C[C@H](Nc1ncnc(N)c1C#N)c1cc2ncc(Cl)n2nc1-c1ccc2c(c1)OCCO2 [Compound 70],37.4,,,IC50 [7]: 22 nM; IC50 ([8]; read-out: PI3K-γ IC50): 1980 nM
C[C@@H](Nc1ncnc(N)c1C#N)c1cc2ncc(Cl)n2nc1-c1ccc2scnc2c1 [Compound 75],−7.1,1.0,31.7,
C[C@H](Nc1ncnc(N)c1C#N)c1cc2ncc(Cl)n2nc1-c1ccc2ccn(C)c2c1 [Compound 76],54.9,48.9,−14.3,
"C[C@H](Nc1ncnc(N)c1C#N)c1cc2ncc(F)n2nc1-c1ccccc1 [Compound 78, (S)-4-amino-6-((1-(3-fluoro-6-phenylimidazo[1,2-b]pyridazin-7-yl)ethyl)amino)pyrimidine-5-carbonitrile]",50.1,,,IC50 [7]: 1 nM; IC50 ([5]; Homo sapiens): 7 nM; IC50 [9]: 10 nM
